Results reported in patent US4229204A, “Trifluoromethylphenyl isoxazolyl benzoates” (Monsanto Company, priority 1978, dated 1980).

Assays:
Type in all cases: in vivo
Soybean = assay: Pre-emergent herbicidal test; details: 4 WAT
Experimental: (§1) The pre-emergent test was conducted as follows:
(§2) A good grade of top soil was placed in aluminum pans and compacted to a depth of three-eighths to one-half inch from the top of the pan. On the top of the soil was placed a predetermined number of seeds or vegetative propagules of various plant species which were pressed into the soil surface. The soil required to level fill the pans after seeding or adding vegetative propagules was weighed into a pan. A known amount of the active ingredient applied in a solvent or as a wettable powder and the soil were thoroughly mixed, and used as a cover layer for prepared pans.
(§3) The herbicidal rating was obtained by means of a fixed scale based on the percent injury of each plant species. The ratings are defined as follows: […]

Hemp Sesbania = assay: Pre-emergent herbicidal test; details: 4 WAT
Experimental: as §1, §2, §3

Wheat = assay: Pre-emergent herbicidal test; details: 4 WAT
Experimental: as §1, §2, §3

Panicum Spp. = assay: Pre-emergent herbicidal test; details: 4 WAT
Experimental: as §1, §2, §3

Rice = assay: Pre-emergent herbicidal test; details: 4 WAT
Experimental: as §1, §2, §3

Sorghum = assay: Pre-emergent herbicidal test; details: 4 WAT
Experimental: as §1, §2, §3

Crabgrass = assay: Pre-emergent herbicidal test; details: 4 WAT
Experimental: as §1, §2, §3

Wild Buckwheat = assay: Pre-emergent herbicidal test; details: 4 WAT
Experimental: as §1, §2, §3

Sugarbeet = assay: Pre-emergent herbicidal test; details: 4 WAT
Experimental: as §1, §2, §3

Cocklebur [1] = assay: Post-emergent herbicidal test; details: 4 WAT, 11.2 kg/h
Experimental: (§4) The post-emergent tests were conducted as follows:
(§5) The active ingredients are applied in spray form to two or three week old specimens of various plant species. The spray, a solution or wettable powder suspension containing the appropriate rate of active ingredient to give the desired test rate and a surfactant, is applied to the plants.
(§6) The compounds were also tested by utilizing the above procedure on the following plant species: […]

Smartweed [2] = assay: Post-emergent herbicidal test; details: 4 WAT, 11.2 kg/h
Experimental: as §4, §5, §6

Yellow Nutsedge [3] = assay: Post-emergent herbicidal test; details: 4 WAT, 11.2 kg/h
Experimental: as §4, §5, §6

Morningglory [4] = assay: Post-emergent herbicidal test; details: 4 WAT, 11.2 kg/h
Experimental: as §4, §5, §6

Johnsongrass [5] = assay: Post-emergent herbicidal test; details: 4 WAT, 11.2 kg/h
Experimental: as §4, §5, §6

Canada Thistle [6] = assay: Post-emergent herbicidal test; details: 4 WAT, 11.2 kg/h
Experimental: as §4, §5, §6

Velvetleaf [7] = assay: Post-emergent herbicidal test; details: 4 WAT, 11.2 kg/h
Experimental: as §4, §5, §6

Quackgrass [8] = assay: Post-emergent herbicidal test; details: 4 WAT, 11.2 kg/h
Experimental: as §4, §5, §6

Downy Brome [9] = assay: Post-emergent herbicidal test; details: 4 WAT, 11.2 kg/h
Experimental: as §4, §5, §6

Lambsquarters [10] = assay: Post-emergent herbicidal test; details: 4 WAT, 11.2 kg/h
Experimental: as §4, §5, §6

Barnyardgrass [11] = assay: Post-emergent herbicidal test; details: 4 WAT, 11.2 kg/h
Experimental: as §4, §5, §6

Cocklebur [12] = assay: Pre-emergent herbicidal test
Experimental: as §1, §2, §3, §6

Smartweed [13] = assay: Pre-emergent herbicidal test
Experimental: as §1, §2, §3, §6

Yellow Nutsedge [14] = assay: Pre-emergent herbicidal test; details: 11.2 kg/h
Experimental: as §1, §2, §3, §6

Morningglory [15] = assay: Pre-emergent herbicidal test
Experimental: as §1, §2, §3, §6

Johnsongrass [16] = assay: Pre-emergent herbicidal test; details: 11.2 kg/h
Experimental: as §1, §2, §3, §6

Canada Thistle [17] = assay: Pre-emergent herbicidal test; details: 11.2 kg/h
Experimental: as §1, §2, §3, §6

Velvetleaf [18] = assay: Pre-emergent herbicidal test
Experimental: as §1, §2, §3, §6

Quackgrass [19] = assay: Pre-emergent herbicidal test; details: 11.2 kg/h
Experimental: as §1, §2, §3, §6

Downy Brome [20] = assay: Pre-emergent herbicidal test
Experimental: as §1, §2, §3, §6

Lambsquarters [21] = assay: Pre-emergent herbicidal test
Experimental: as §1, §2, §3, §6

Barnyardgrass [22] = assay: Pre-emergent herbicidal test
Experimental: as §1, §2, §3, §6
Further: ranges in brackets are in %.

Question: Which results are given for `CCCCCOC(=O)c1ccccc1-c1cc(-c2cccc(C(F)(F)F)c2)no1` [Example 7, n-Pentyl 2-[3-[3-(Trifluoromethyl)Phenyl]-5-Isoxazolyl]Benzoate]?
Answer: herbicidal rating (Soybean; 0.28 kg/h): 0 (0-24); herbicidal rating (Soybean; 1.12 kg/h): 0 (0-24); herbicidal rating (Soybean; 5.60 kg/h): 3 (75-100); herbicidal rating (Hemp Sesbania; 0.28 kg/h): 0 (0-24); herbicidal rating (Hemp Sesbania; 1.12 kg/h): 1 (25-49); herbicidal rating (Hemp Sesbania; 5.60 kg/h): 2 (50-74); herbicidal rating (Wheat; 0.28 kg/h): 0 (0-24); herbicidal rating (Wheat; 1.12 kg/h): 1 (25-49); herbicidal rating (Wheat; 5.60 kg/h): 1 (25-49); herbicidal rating (Panicum Spp.; 1.12 kg/h): 0 (0-24); herbicidal rating (Panicum Spp.; 5.60 kg/h): 2 (50-74); herbicidal rating (Rice; 0.28 kg/h): 1 (25-49); herbicidal rating (Rice; 1.12 kg/h): 2 (50-74); herbicidal rating (Rice; 5.60 kg/h): 3 (75-100); herbicidal rating (Sorghum; 0.28 kg/h): 0 (0-24); herbicidal rating (Sorghum; 1.12 kg/h): 1 (25-49); herbicidal rating (Sorghum; 5.60 kg/h): 3 (75-100); herbicidal rating (Crabgrass; 0.28 kg/h): 0 (0-24); herbicidal rating (Crabgrass; 1.12 kg/h): 0 (0-24); herbicidal rating (Crabgrass; 5.60 kg/h): 3 (75-100); herbicidal rating (Wild Buckwheat; 0.28 kg/h): 3 (75-100); herbicidal rating (Wild Buckwheat; 1.12 kg/h): 2 (50-74); herbicidal rating (Wild Buckwheat; 5.60 kg/h): 2 (50-74); herbicidal rating (Sugarbeet; 0.28 kg/h): 3 (75-100); herbicidal rating (Sugarbeet; 1.12 kg/h): 2 (50-74); herbicidal rating (Sugarbeet; 5.60 kg/h): 2 (50-74); herbicidal rating (Cocklebur [1]): 2 (50-74); herbicidal rating (Smartweed [2]): 1 (25-49); herbicidal rating (Yellow Nutsedge [3]): 1 (25-49); herbicidal rating (Morningglory [4]): 2 (50-74); herbicidal rating (Johnsongrass [5]): 2 (50-74); herbicidal rating (Canada Thistle [6]): 2 (50-74); herbicidal rating (Velvetleaf [7]): 1 (25-49); herbicidal rating (Quackgrass [8]): 0 (0-24); herbicidal rating (Downy Brome [9]): 0 (0-24); herbicidal rating (Lambsquarters [10]): 1 (25-49); herbicidal rating (Barnyardgrass [11]): 1 (25-49); herbicidal rating (Cocklebur [12]; 4 WAT, 0.28 kg/h): 0 (0-24); herbicidal rating (Cocklebur [12]; 4 WAT, 1.12 kg/h): 0 (0-24); herbicidal rating (Cocklebur [12]; 4 WAT, 5.60 kg/h): 1 (25-49); herbicidal rating (Cocklebur [12]; 4 WAT, 11.2 kg/h): 1 (25-49); herbicidal rating (Smartweed [13]; 4 WAT, 0.28 kg/h): 0 (0-24); herbicidal rating (Smartweed [13]; 4 WAT, 1.12 kg/h): 2 (50-74); herbicidal rating (Smartweed [13]; 4 WAT, 5.60 kg/h): 2 (50-74); herbicidal rating (Smartweed [13]; 4 WAT, 11.2 kg/h): 2 (50-74); herbicidal rating (Yellow Nutsedge [14]; 4 WAT): 0 (0-24); herbicidal rating (Morningglory [15]; 4 WAT, 0.28 kg/h): 0 (0-24); herbicidal rating (Morningglory [15]; 4 WAT, 1.12 kg/h): 2 (50-74); herbicidal rating (Morningglory [15]; 4 WAT, 5.60 kg/h): 2 (50-74); herbicidal rating (Morningglory [15]; 4 WAT, 11.2 kg/h): 1 (25-49); herbicidal rating (Johnsongrass [16]; 4 WAT): 1 (25-49); herbicidal rating (Canada Thistle [17]; 4 WAT): 1 (25-49); herbicidal rating (Velvetleaf [18]; 4 WAT, 0.28 kg/h): 0 (0-24); herbicidal rating (Velvetleaf [18]; 4 WAT, 1.12 kg/h): 0 (0-24); herbicidal rating (Velvetleaf [18]; 4 WAT, 5.60 kg/h): 1 (25-49); herbicidal rating (Velvetleaf [18]; 4 WAT, 11.2 kg/h): 0 (0-24); herbicidal rating (Quackgrass [19]; 4 WAT): 2 (50-74); herbicidal rating (Downy Brome [20]; 4 WAT, 0.28 kg/h): 2 (50-74); herbicidal rating (Downy Brome [20]; 4 WAT, 1.12 kg/h): 1 (25-49); herbicidal rating (Downy Brome [20]; 4 WAT, 5.60 kg/h): 2 (50-74); herbicidal rating (Downy Brome [20]; 4 WAT, 11.2 kg/h): 1 (25-49); herbicidal rating (Lambsquarters [21]; 4 WAT, 0.28 kg/h): 1 (25-49); herbicidal rating (Lambsquarters [21]; 4 WAT, 1.12 kg/h): 2 (50-74); herbicidal rating (Lambsquarters [21]; 4 WAT, 5.60 kg/h): 2 (50-74); herbicidal rating (Lambsquarters [21]; 4 WAT, 11.2 kg/h): 3 (75-100); herbicidal rating (Barnyardgrass [22]; 4 WAT, 0.28 kg/h): 2 (50-74); herbicidal rating (Barnyardgrass [22]; 4 WAT, 1.12 kg/h): 2 (50-74); herbicidal rating (Barnyardgrass [22]; 4 WAT, 5.60 kg/h): 3 (75-100); herbicidal rating (Barnyardgrass [22]; 4 WAT, 11.2 kg/h): 3 (75-100)

Question: `CC(C)OC(=O)c1ccccc1-c1cc(-c2cccc(C(F)(F)F)c2)no1` [Example 8, Isopropyl 2-[3-[3-(Trifluoromethyl)Phenyl]-5-Isoxazolyl]Benzoate] was tested. Which herbicidal rating (Cocklebur [1]) did it give?
Answer: 1 (25-49)

Question: What about the herbicidal rating (Smartweed [2]) of the same molecule?
Answer: 1 (25-49)

Question: And the herbicidal rating (Yellow Nutsedge [3])?
Answer: 0 (0-24)

Question: And the herbicidal rating (Morningglory [4])?
Answer: 2 (50-74)

Question: And the herbicidal rating (Johnsongrass [5])?
Answer: 0 (0-24)

Question: And the herbicidal rating (Canada Thistle [6])?
Answer: 0 (0-24)

Question: And the herbicidal rating (Velvetleaf [7])?
Answer: 0 (0-24)

Question: What about the herbicidal rating (Quackgrass [8]) of the same molecule?
Answer: 0 (0-24)

Question: And the herbicidal rating (Downy Brome [9])?
Answer: 0 (0-24)

Question: What about the herbicidal rating (Lambsquarters [10]) of the same molecule?
Answer: 2 (50-74)

Question: What about the herbicidal rating (Barnyardgrass [11]) of the same molecule?
Answer: 1 (25-49)

Question: What about the herbicidal rating (Cocklebur [12]; 2 WAT, 11.2 kg/h) of the same molecule?
Answer: 0 (0-24)

Question: And the herbicidal rating (Smartweed [13]; 2 WAT, 11.2 kg/h)?
Answer: 0 (0-24)

Question: And the herbicidal rating (Yellow Nutsedge [14]; 2 WAT)?
Answer: 0 (0-24)

Question: What about the herbicidal rating (Morningglory [15]; 2 WAT, 11.2 kg/h) of the same molecule?
Answer: 0 (0-24)

Question: What about the herbicidal rating (Johnsongrass [16]; 2 WAT) of the same molecule?
Answer: 0 (0-24)

Question: And the herbicidal rating (Canada Thistle [17]; 2 WAT)?
Answer: 0 (0-24)

Question: What about the herbicidal rating (Velvetleaf [18]; 2 WAT, 11.2 kg/h) of the same molecule?
Answer: 0 (0-24)

Question: What about the herbicidal rating (Quackgrass [19]; 2 WAT) of the same molecule?
Answer: 1 (25-49)

Question: And the herbicidal rating (Downy Brome [20]; 2 WAT, 11.2 kg/h)?
Answer: 0 (0-24)

Question: And the herbicidal rating (Lambsquarters [21]; 2 WAT, 11.2 kg/h)?
Answer: 3 (75-100)

Question: What about the herbicidal rating (Barnyardgrass [22]; 2 WAT, 11.2 kg/h) of the same molecule?
Answer: 0 (0-24)
